Consider four compounds from ChEMBL document CHEMBL1649096, “Study of kaempferol glycoside as an insulin mimic reveals glycon to be the key active structure” (2011).

Active and inactive are the calls of the source. The calls are words filed in the database; no cut-off is given here.

Test [1] deals with L6. Kind of test: Insulin mimetic activity in rat L6 cells assessed as stimulation of 2-deoxyglucose uptake at 1 nM by enzymatic method relative to untreated control. Format: functional.
Test [2] relates to L6. As to the kind of experiment: Insulin mimetic activity in rat L6 cells assessed as stimulation of 2-deoxyglucose uptake at 0.1 nM by enzymatic method relative to untreated control. Type of test: functional.
Test [3] relates to L6. As to the kind of experiment: Insulin mimetic activity in rat L6 cells assessed as stimulation of 2-deoxyglucose uptake at 1 mM by enzymatic method relative to untreated control. Format: functional, cell-based.

With `C[C@@H]1O[C@@H](O[C@H]2C(O)O[C@H](CO)[C@@H](O)[C@@H]2O)[C@H](O)[C@H](O)[C@H]1O` (some centres not stated) [NEOHESPERIDOSE], the Activity in test [1] and in test [2] was 200% in each case.
With `O=c1c(O)c(-c2ccc(O)cc2)oc2cc(O)cc(O)c12`, the result in test [1] was inactive.
In the case of `O=c1c(O[C@@H]2O[C@H](CO)[C@@H](O)[C@H](O)[C@H]2O)c(-c2ccc(O)cc2)oc2cc(O)cc(O)c12`, the outcome in test [1] was inactive. The Activity result in test [2] (filed as antagonist) is “Irreversible Antagonist”.
On to `C[C@H]1O[C@H](O[C@H]2[C@H](Oc3c(-c4ccc(O)cc4)oc4cc(O)cc(O)c4c3=O)O[C@H](CO)[C@@H](O)[C@@H]2O)[C@@H](O)[C@@H](O)[C@@H]1O`, for which, in test [3], the outcome was inactive. In test [1], the Activity was determined as 200%.
